{"source": "patent US20260207623A1", "about": "“USE OF ESTETROL IN HEPATICALLY IMPAIRED PATIENTS” (ESTETRA SRL, priority 2022, published 2026)", "key": {"[1]": {"test_system": "female subjects with normal hepatic function, mild, moderate or severe hepatic impairment", "assay": "Safety and tolerability (TEAEs, clinical laboratory, vital signs, physical examination) after a single oral dose of 20 mg E4 monohydrate in the hepatic impairment study", "assay_type": "in vivo, human", "protocol": "This was a Phase 1, multi-centre, open-label, PK, and safety study of a single oral dose of 20 mg E4 monohydrate in female subjects with normal hepatic function (Group 1), mild hepatic impairment (Group 2), moderate hepatic impairment (Group 3), and severe hepatic impairment (Group 4), as defined using the Child-Pugh classification at Screening.\nSafety and tolerability assessments consisted of treatment-emergent AEs (TEAEs), clinical laboratory, vital signs, physical examination, and gynecological examination. Assessments were performed in accordance with Table 2 and Table 3 in Section 2.5.1.\nAEs/TEAEs were recorded after signing of the ICF until completion of the follow up visit. Any clinically significant observations in results of clinical laboratory, vital signs, or physical examinations were recorded as AEs.\nA TEAE is defined as any event not present prior to administration of the study drug or any event already present that worsens in either severity or frequency following exposure to the study drug.\nThe below listed tests were to be performed by the local laboratories at time points indicated in the Schedule of Assessments (Table 2).\nSystolic and diastolic blood pressure and pulse were recorded after the subject had been resting for at least 5 minutes in the supine position at time points indicated in the Schedule of Assessments (Table 2). These assessments were made using an automated device. Body temperature and respiratory rate were measured subsequently.\nA complete physical examination consisting of a review of all body systems was performed at time points indicated in the Schedule of Assessments (Table 2). A symptom-directed physical examination could be conducted at any time per Investigator's discretion.\n2.6.2.2 Evaluation of Safety and Tolerability Safety and tolerability were assessed through TEAEs, clinical laboratory, vital signs, and physical examination findings, and any other parameter that was relevant for safety assessment.\nA listing of all individual AEs is provided. Summary tables of TEAEs are presented by system organ class (SOC) based on the MedDRA terminology list (preferred terms): a table containing the number of subjects experiencing AEs by hepatic function, a table containing the number of subjects experiencing SAEs by hepatic function (if applicable), a table by hepatic function and relationship, and a table by hepatic function and severity."}, "[2]": {"conditions": "mass balance study in humans; cited from earlier work"}, "[3]": {"conditions": "Mild (N = 8), single oral dose 20 mg E4"}, "[4]": {"conditions": "Moderate (N = 8), single oral dose 20 mg E4"}, "[5]": {"conditions": "Normal (N = 8), single oral dose 20 mg E4"}, "[6]": {"conditions": "Severe (N = 8), single oral dose 20 mg E4"}, "[7]": {"conditions": "Total (N = 32), single oral dose 20 mg E4"}, "[8]": {"conditions": "all 32 subjects, single oral dose 20 mg E4"}, "[9]": {"conditions": "moderate hepatic impairment group"}}, "note": "Values joined by “and” are separate entries in the source; they are usually repeats but may differ in a detail not shown here. Identical values can stand only once. “Also recorded” adds a separate entry of the source.", "data": [{"smiles": "C[C@]12CC[C@@H]3c4ccc(O)cc4CC[C@H]3[C@@H]1[C@@H](O)[C@@H](O)[C@@H]2O", "note": "[E4, 1,3,5 (10)-estratrien-3,15alpha, 16alpha, 17beta-tetrol]", "values": [{"measurement": "Subjects by maximum relationship to study drug: Not related", "setting": "[1]; [3]", "result": "2 (25.0) n (%)"}, {"measurement": "Subjects by maximum relationship to study drug: Related", "setting": "[1]; [3]", "result": "0 n (%)"}, {"measurement": "Subjects with TEAEs by maximum severity: Mild", "setting": "[1]; [3]", "result": "2 (25.0) n (%)"}, {"measurement": "Subjects with TEAEs by maximum severity: Moderate", "setting": "[1]; [3]", "result": "0 n (%)"}, {"measurement": "Subjects with at least one AE", "setting": "[1]; [3]", "result": "2 (25.0) n (%)"}, {"measurement": "Subjects with at least one SAE", "setting": "[1]; [3]", "result": "0 n (%)"}, {"measurement": "Subjects with at least one TEAE", "setting": "[1]; [3]", "result": "2 n (%) and 2 (25.0) n (%)"}, {"measurement": "Subjects with at least one TEAE leading to study drug discontinuation", "setting": "[1]; [3]", "result": "0 n (%)"}, {"measurement": "Subjects by maximum relationship to study drug: Not related", "setting": "[1]; [4]", "result": "3 (37.5) n (%)"}, {"measurement": "Subjects by maximum relationship to study drug: Related", "setting": "[1]; [4]", "result": "1 (12.5) n (%)"}, {"measurement": "Subjects with TEAEs by maximum severity: Mild", "setting": "[1]; [4]", "result": "3 (37.5) n (%)"}, {"measurement": "Subjects with TEAEs by maximum severity: Moderate", "setting": "[1]; [4]", "result": "1 (12.5) n (%)"}, {"measurement": "Subjects with at least one AE", "setting": "[1]; [4]", "result": "4 (50.0) n (%)"}, {"measurement": "Subjects with at least one SAE", "setting": "[1]; [4]", "result": "0 n (%)"}, {"measurement": "Subjects with at least one TEAE", "setting": "[1]; [4]", "result": "4 n (%) and 4 (50.0) n (%)"}, {"measurement": "Subjects with at least one TEAE leading to study drug discontinuation", "setting": "[1]; [4]", "result": "0 n (%)"}, {"measurement": "Subjects by maximum relationship to study drug: Not related", "setting": "[1]; [5]", "result": "2 (25.0) n (%)"}, {"measurement": "Subjects by maximum relationship to study drug: Related", "setting": "[1]; [5]", "result": "0 n (%)"}, {"measurement": "Subjects with TEAEs by maximum severity: Mild", "setting": "[1]; [5]", "result": "0 n (%)"}, {"measurement": "Subjects with TEAEs by maximum severity: Moderate", "setting": "[1]; [5]", "result": "2 (25.0) n (%)"}, {"measurement": "Subjects with at least one AE", "setting": "[1]; [5]", "result": "2 (25.0) n (%)"}, {"measurement": "Subjects with at least one SAE", "setting": "[1]; [5]", "result": "0 n (%)"}, {"measurement": "Subjects with at least one TEAE", "setting": "[1]; [5]", "result": "2 n (%) and 2 (25.0) n (%)"}, {"measurement": "Subjects with at least one TEAE leading to study drug discontinuation", "setting": "[1]; [5]", "result": "0 n (%)"}, {"measurement": "Subjects by maximum relationship to study drug: Not related", "setting": "[1]; [6]", "result": "1 (12.5) n (%)"}, {"measurement": "Subjects by maximum relationship to study drug: Related", "setting": "[1]; [6]", "result": "0 n (%)"}, {"measurement": "Subjects with TEAEs by maximum severity: Mild", "setting": "[1]; [6]", "result": "1 (12.5) n (%)"}, {"measurement": "Subjects with TEAEs by maximum severity: Moderate", "setting": "[1]; [6]", "result": "0 n (%)"}, {"measurement": "Subjects with at least one AE", "setting": "[1]; [6]", "result": "1 (12.5) n (%)"}, {"measurement": "Subjects with at least one SAE", "setting": "[1]; [6]", "result": "0 n (%)"}, {"measurement": "Subjects with at least one TEAE", "setting": "[1]; [6]", "result": "1 n (%) and 1 (12.5) n (%)"}, {"measurement": "Subjects with at least one TEAE leading to study drug discontinuation", "setting": "[1]; [6]", "result": "0 n (%)"}, {"measurement": "Subjects by maximum relationship to study drug: Related", "setting": "[1]; [7]", "result": "1 n (%) and 1 (3.1) n (%)"}, {"measurement": "Subjects with TEAEs by maximum severity: Moderate", "setting": "[1]; [7]", "result": "3 n (%) and 3 (9.4) n (%)"}, {"measurement": "Subjects with at least one AE", "setting": "[1]; [7]", "result": "9 (28.1) n (%)"}, {"measurement": "Subjects with at least one SAE", "setting": "[1]; [7]", "result": "0 n (%)"}, {"measurement": "Subjects with at least one TEAE", "setting": "[1]; [7]", "result": "9 n (%) and 9 (28.1) n (%)"}, {"measurement": "Subjects with at least one TEAE leading to study drug discontinuation", "setting": "[1]; [7]", "result": "0 n (%)"}, {"measurement": "subjects reporting TEAE back pain", "setting": "[1]; [8]", "result": 2, "unit": "subjects"}, {"measurement": "subjects reporting TEAE diarrhea", "setting": "[1]; [8]", "result": 3, "unit": "subjects"}, {"measurement": "subjects reporting TEAE headache", "setting": "[1]; [8]", "result": 2, "unit": "subjects"}, {"measurement": "subjects reporting TEAE hypertension", "setting": "[1]; [8]", "result": 2, "unit": "subjects"}, {"measurement": "laboratory values, changes and shifts from baseline (hematology, clinical chemistry)", "setting": "[1]; all hepatic function groups", "result": "did not show deviations or trends which would raise safety concerns"}, {"measurement": "number of TEAEs considered of mild intensity", "setting": "[1]; all subjects", "result": "Eleven"}, {"measurement": "number of TEAEs considered of moderate intensity", "setting": "[1]; all subjects", "result": 4, "unit": "TEAEs"}, {"measurement": "blood pressure, pulse rate, respiratory rate, body temperature", "setting": "[1]; changes from baseline", "result": "showed no trends or clinically relevant changes"}, {"measurement": "number of TEAEs considered related to the study drug", "setting": "[1]; diarrhea, mild intensity, 1 subject in the moderate group", "result": 1, "unit": "TEAE"}, {"measurement": "subjects with TEAE hypertension", "setting": "[1]; mild hepatic impairment group", "result": 2, "unit": "subjects"}, {"measurement": "subjects reporting TEAE diarrhea", "setting": "[1]; [9]", "result": 2, "unit": "subjects"}, {"measurement": "subjects reporting TEAE headache", "setting": "[1]; [9]", "result": 2, "unit": "subjects"}, {"measurement": "subjects reporting TEAE back pain", "setting": "[1]; normal hepatic function group", "result": 1, "unit": "subjects"}, {"measurement": "subjects reporting TEAE diarrhea", "setting": "[1]; normal hepatic function group", "result": 1, "unit": "subjects"}, {"measurement": "vital signs, laboratory values, physical examination", "setting": "[1]; overall conclusion", "result": "unremarkable"}, {"measurement": "subjects reporting TEAE back pain", "setting": "[1]; severe hepatic impairment group", "result": 1, "unit": "subjects"}, {"measurement": "deaths, SAEs, other significant AEs", "setting": "[1]; whole study", "result": "no subjects with SAEs; also recorded: No deaths, SAEs, or other significant AEs occurred"}, {"measurement": "contribution of hepatic elimination to the overall elimination", "setting": "[2]", "result": "approximately 20%"}]}]}
